From ChEMBL document CHEMBL1201862, “PubChem BioAssay data set” (2004)
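Values below derive from 48-hour exposures of cells grown in 96-well plates, with endpoints linearly interpolated between the two concentrations bracketing the appropriate inhibition level. Here, GI50 denotes the concentration required for 50% inhibition of growth.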 The source made the active and inactive calls. No stated cut-off is given here; in the data, active = GI50 up to about 1.1 µM and inactive = higher.

Experiments:
Test in all cases: growth of human tumour cells (NCI), 48 h
ACHN = test system: ACHN
CAKI-1 = test system: CAKI-1
HCC 2998 = test system: HCC 2998
HCT-15 = test system: HCT-15
HOP-62 = test system: HOP-62
IGROV-1 = test system: IGROV-1
K562 = test system: K562
LOX IMVI = test system: LOX IMVI
Malme-3M = test system: Malme-3M
NCI-H460 = test system: NCI-H460
RPMI-8226 = test system: RPMI-8226
SK-MEL-2 = test system: SK-MEL-2
SK-MEL-5 = test system: SK-MEL-5
SN12C = test system: SN12C
SW-620 = test system: SW-620
U-251 = test system: U-251
UACC-257 = test system: UACC-257

| Structure (SMILES) | GI50 (ACHN) | GI50 (CAKI-1) | GI50 (HCC 2998) | GI50 (HCT-15) [µM] | GI50 (HOP-62) | GI50 (IGROV-1) | GI50 (K562) | GI50 (LOX IMVI) | GI50 (Malme-3M) | GI50 (NCI-H460) | GI50 (RPMI-8226) | GI50 (SK-MEL-2) | GI50 (SK-MEL-5) | GI50 (SN12C) | GI50 (SW-620) | GI50 (U-251) | GI50 (UACC-257) |
| --- | --- | --- | --- | --- | --- | --- | --- | --- | --- | --- | --- | --- | --- | --- | --- | --- | --- |
| COc1ccc(NC(=O)NS(=O)(=O)c2ccc(C)cc2)nn1 | > 100 µM (inactive) | > 100 µM (inactive) | > 100 µM (inactive) | > 100 | > 100 µM (inactive) | > 100 µM (inactive) | > 100 µM (inactive) | > 100 µM (inactive) | > 100 µM (inactive) | > 100 µM (inactive) | > 100 µM (inactive) | > 100 µM (inactive) | > 100 µM (inactive) | > 100 µM (inactive) | > 100 µM (inactive) | > 100 µM (inactive) | > 100 µM (inactive) |
| C[C@]12CCC[C@H](OC=O)C1(O)C[C@H](C(=O)O)CC2 (some centres undefined) | > 100 µM (inactive) | > 100 µM (inactive) | > 100 µM (inactive) | > 100 | > 100 µM (inactive) | > 100 µM (inactive) | > 100 µM (inactive) | > 100 µM (inactive) | > 100 µM (inactive) | > 100 µM (inactive) | > 100 µM (inactive) | > 100 µM (inactive) | > 100 µM (inactive) | > 100 µM (inactive) | > 100 µM (inactive) | > 100 µM (inactive) | > 100 µM (inactive) |
| c1ccc2c(c1)Sc1ccccc1N2C1CN2CCC1CC2 (centres undefined) | 16.9 µM (inactive) | 17.2 µM (inactive) | 14.5 µM (inactive) | 16.8 | 12.9 µM (inactive) | 18.9 µM (inactive) | 13.7 µM (inactive) | 10.9 µM (inactive) | 16.3 µM (inactive) | 16.1 µM (inactive) | 23.1 µM (inactive) | 4.46 µM (inactive) | 15.6 µM (inactive) | 14.2 µM (inactive) | 16.4 µM (inactive) | 15.6 µM (inactive) | 15.5 µM (inactive) |
| COC(=O)c1ccc(C(=O)OC)c2nc3cc(C)ccc3nc12 | > 100 µM (inactive) | > 100 µM (inactive) | > 100 µM (inactive) | > 100 | > 100 µM (inactive) | > 100 µM (inactive) | > 100 µM (inactive) | > 100 µM (inactive) | > 100 µM (inactive) | > 100 µM (inactive) | > 100 µM (inactive) | > 100 µM (inactive) | > 100 µM (inactive) | > 100 µM (inactive) | > 100 µM (inactive) | > 100 µM (inactive) | > 100 µM (inactive) |
| CC1(C)OC(COCCOCCCCCO)C(COCCOCCCCCO)O1 (centres undefined) | > 100 µM (inactive) | > 100 µM (inactive) | > 100 µM (inactive) | > 100 | > 100 µM (inactive) | > 100 µM (inactive) | > 100 µM (inactive) | > 100 µM (inactive) | > 100 µM (inactive) | > 100 µM (inactive) | > 100 µM (inactive) | > 100 µM (inactive) | > 100 µM (inactive) | > 100 µM (inactive) | > 100 µM (inactive) | > 100 µM (inactive) | > 100 µM (inactive) |
| COC(=O)/C(=N/NC(=O)C[N+](C)(C)C)C(C(=O)OC)C(=O)C(=O)Nc1ccc(F)cc1 (centres undefined) | > 100 µM (inactive) | > 100 µM (inactive) | > 100 µM (inactive) | > 100 | > 100 µM (inactive) | > 100 µM (inactive) | > 100 µM (inactive) | > 100 µM (inactive) | > 100 µM (inactive) | > 100 µM (inactive) | > 100 µM (inactive) | > 100 µM (inactive) | > 100 µM (inactive) | > 100 µM (inactive) | > 100 µM (inactive) | > 100 µM (inactive) | > 100 µM (inactive) |
| CC1CC(c2ccccc2)=Nc2ccccc2S1(=O)=O (centres undefined) | 16 µM (inactive) | 22 µM (inactive) | 5.2 µM (inactive) | 24.1 | 20.3 µM (inactive) | 17.7 µM (inactive) | 19.4 µM (inactive) | 17.3 µM (inactive) | 17.9 µM (inactive) | 16.3 µM (inactive) | 2.16 µM (inactive) | 14.8 µM (inactive) | 17.9 µM (inactive) | 16.6 µM (inactive) | 16.2 µM (inactive) | 18.1 µM (inactive) | 11.6 µM (inactive) |
